From patent US6248309A, “Gums containing antimicrobial agents” (priority 1999, dated 2001)
Values joined by “and” are separate entries in the source; they are usually repeats but may differ in a detail not shown here. Equal values may be shown once. Where a name gives a salt, the structure may show the parent alone. Read-outs that look alike come from different tables or passages of the source.

Columns and labels:
[1] = for Above MIC in Saliva (Y/N): concentration in saliva at any time above MIC relative to Porphyromonas gingivalis
Protocol: (§11) Ten volunteers chewed 2.7 grams samples of each gum formulation and provided saliva samples at intervals and the gum bolus at the end of the 25 minute chewing period. High pressure liquid chromatography and gas chromatography were used to analyze the gum bolus and saliva non-volatile and volatile components, respectively.
(§12) Saliva samples were collected from each of the individuals prior to chewing 2.7 grams of gum, and at 1.0, 2.5, 5.0, 10.0, and 25.0 minutes while chewing the gum. The saliva samples were refrigerated until analysis. The gum bolus that remained after 25 minutes was saved and extracted immediately or stored refrigerated until extraction for analysis.
(§13) Samples were Vortex-mixed in Multi-tube vortex mixer for one minute and then centrifuged at top speed in clinical centrifuge for two minutes. Supernatants were carefully transferred to 1 milliliter glass shell vials and capped. Analysis was carried out either by isocratic elution for glabridin-only samples, or gradient elution for the samples containing the glycyrrhizic and 18β-glycyrrhetinic acids using high pressure liquid chromatography. Glabridin concentrations were converted to GLY concentrations by taking the weight percent glabridin in GLY to be 2.74 percent.
(§14) The calibration curve was prepared using spiked blank saliva.
(§15) For saliva, the essential oils of menthol, cedarwood oil, geraniol and Rosmarinus officianalis were determined by capillary gas chromatography. The split ratio was 25:1. The injection volume was 2 μL. Four hundred μL of saliva was extracted from the 1 milliliter of ethyl acetate containing an internal standard (hexadecane) in 1.5 milliliter Eppendorf tubes. After centrifugation, the organic layer was injected directly into the Hewlett-Packard 6890 gas chromatograph. […] For this reason, only the samples from 0 to 10 minutes were analyzed. A cleanup gradient was run from 190 to 300° C. every fifth sample to remove less volatile interferences from the column.

[2] = format: in vivo, human volunteers
Protocol: The saliva samples were refrigerated until analysis.
To either 2.7 grams unchewed gum sample or the remaining bolus of chewed gum, was added 3.0 millileters of internal standard (Hesperetin) in methanol, 6.0 milliliters hexane and 3.0 milliliters distilled water. Samples were homogenized using a Polytron Homogenizer model PT10/35 from Brinkmann Instruments, fitted with a PTA10TS generator for at least 30 seconds on ice, or until no lumps of non-dispersed gum were visible in the sample. Samples were then centrifuged in a Dynac Tabletop Centrifuge at top speed for ten minutes. The lower, amber, aqueous/methanol layer were then filtered through 25 millimeter, 0.45 micrometer nylon Acrodisc syringe filters from Gelman into 4 milliliter autosampler vials and tightly capped with polytetrafluorothylene lined septum in open-top screw caps. These samples were then analyzed using high pressure liquid chromatography for glabridin and/or glycyrrhizic and 18β-glycyrrhetinic acid, and were quantitated against a 4-point linear curve prepared by spiking approximately 2.7 grams unchewed samples of Wrigley Extra Sugarfree Peppermint gum with known levels of purified glabridin, glycyrrhizic acid monoammonium salt and 18β-glycyrrhetinicacid.
For the analysis of the gum bolus, both chewed and unchewed, a Polytron Homogenizer, described above was used. The gum sample was placed in a heavy wall glass tube. Internal standard ([…]) ethyl acetate ([…]) and water ([…]) were added. The sample was homogenized for approximately 30 seconds, or until no particles could be seen. The tubes were then centrifuged for 10 minutes on a clinical centrifuge at maximum speed. The supernatant was injected directly onto the gas chromatograph. The oven program was modified to allow resolution of ROF1 components from those of the peppermint flavoring. The gas chromatograph was calibrated using a three point standard curve to quantify the following components: menthol (flavor); geraniol (oil geraniol); cedrene, thujopsene (RC1); pinene, cineol, camphor, bornyl acetate (ROF1). The initial temperature was decreased from 140° C. to 100° C. The temperature gradient was changed from 10° C./minute to 4° C./minute. The split ratio was 50:1, and injection volume was 1 μL as per the method. A cleanup gradient was run every fifth sample as described previously.
A recovery study was performed in triplicate using blank Wrigley's Peppermint Gum (chewed and unchewed) spiked with stand and solution. Recovery was calculated relative to a direct standard consisting of spike solution without sample matrix.

[3] = clinical; details: human, in vivo
Protocol: as §11, §12, §13, §14, §15

[4] = tested on: Porphyromonas gingivalis; test: MIC of each agent used in Example 5; format: cell-based; details: read-out: MIC relative to Porphyromonas gingivalis used in Example 5
Protocol: The MIC Range was determined against a standard panel of five organisms that included Actinomyces viscosus, Fusobacterium nucleatum, Porphyromonas gingivalis, Streptococcus mutans, and Stretococcus sanguis. The starting dilution was 0.1 percent in methanol. The MIC used in this Example 5 was the MIC for each agent relative to Porphyromonas gingivalis.

[5] = tested on: Actinomyces viscosus (AV); test: MIC of agents alone and in two-agent combination (Example 1); format: cell-based, Actinomyces viscosus ATCC 19246; details: concentration of TB1 (agent A)
Protocol: (§1) The following example illustrates how the MIC of individual antimicrobial agents that are combined were determined and also illustrates how the MIC of the antimicrobial agents in combination were determined.
(§2) A microtiter plate was used to dilute the antimicrobial agents to varying concentrations in order to determine the MIC of those antimicrobial agents alone and the MIC of the agents when combined.
(§3) A bacterial culture was incubated at 37° C. Prior to the dilution of the antimicrobial agents as described below, the bacterial culture was spun down at 2,000 rpm into a pellet and resuspended in a solution of buffered phosphate. The innoculum was normalized with a spectrophotometer to an optical density at 550 nanometers of between 0.180-0.220 (equivalent to 5.0×10^7 colony forming units, CFU per milliliter). The innoculum was set aside until the completion of the antimicrobial agent dilution. […]
(§4) Following 48 hours of incubation, the incubated plate was read for microbial growth with a spectrophotometer by optical density (OD). The well containing the lowest dilution achievable for each agent with a spectrophotometer reading below 0.05 OD (i.e., no detectable microbial growth) was considered representative for the combination. The MIC for each agent in the combination was determined by accounting for the starting stock solution concentration and the resulting dilutions in the 96-well plate. […]

[6] = tested on: Streptococcus sanguis (SS); test: as above; format: cell-based, Streptococcus sanguis ATCC 49295; details: concentration of TB1 (agent A)
Protocol: as §1, §2, §3, §4

[7] = tested on: Porphyromonas gingivalis (PG); test: as above; format: cell-based, Porphyromonas gingivalis ATCC 33277; details: concentration of TB1 (agent A)
Protocol: as §1, §2, §3, §4

[8] = tested on: Fusobacterium nucleatum (FN); test: as above; format: cell-based, Fusobacterium nucleatum ATCC 10933; details: concentration of TB1 (agent A)
Protocol: as §1, §2, §3, §4

[9] = tested on: Streptococcus mutans (SM); test: as above; format: cell-based, Streptococcus mutans ATCC 25175; details: concentration of TB1 (agent A)
Protocol: as §1, §2, §3, §4

[10] = tested on: Porphyromonas gingivalis (PG); test: MIC of agents alone, in pairs and in three-agent combination (Example 2); format: cell-based, Porphyromonas gingivalis ATCC 33277
Excerpt: (§5) In addition, the example describes how the MIC of antimicrobial agents in the combinations are reduced compared to the MIC of those antimicrobial agents alone and the MIC of those agents in various pairings. Numerous combinations of the antimicrobial agents described herein were combined to form combinations comprising three antimicrobial agents or triplets. Each of the formed triplets included either cedarwood oil or berberine hydrochloride.
(§6) The protocol used was a variation of the procedure described above in Example 1. The assay was carried out in the two-dimensional array of a 96-well plate. In order to evaluate three agents, two of the agents were paired against the third agent. For example, varying concentrations of antimicrobial agent A plus antimicrobial agent B versus varying concentrations of antimicrobial agent C were evaluated on one 96-well plate. The procedure was repeated with the other two possible pairings, i.e., A+C with B, and B+C with A. Accordingly, each triplet required three assays in order to assess each of the three possible pairings.
(§7) The bacterial innoculum was prepared as described in Example 1.
(§8) A sterile polystyrene 96-well plate was used to dilute the antimicrobial agents A, B and C. Using aseptic technique, 100 microliters of distilled water was placed in each test well. The dilution scheme was separated into two parts. First, the dilution of the combined agents A and B and then second, the dilution of agent C. A dilution of agents A and B was accomplished by placing 50 microliters of stock solution for agent A in the first well of each column. Next, 50 microliters of stock solution for agent B was added to each of the first wells of each column. Accordingly, the first well of each column included 50 microliters of stock solution for agent A and 50 microliters of stock solution for agent B. 100 microliters from the first row in each column was then transferred to the next well in the column and so on down the column. Each transfer was a one-half dilution of the preceding concentration.
(§9) The dilution of antimicrobial agent C was accomplished by adding 100 microliters of agent C stock solution to the first well of each row. 100 microliters from the first well in each row was then transferred to the next well and so on across the row of test wells. Each transfer was a one-half dilution of the preceding concentration. FIG. 1 is a schematic illustration of the concentrations of antimicrobial agents A, B and C derived from the dilution scheme described above. […] The concentration of agent C decreases across a row from left to right. […]
(§10) The 96-well plate was then incubated under conditions that varied by microorganism. […] The plate was then read for microbial growth with a spectrophotometer by optical density. […]

[11] = tested on: Streptococcus sanguis (SS); test: as above; format: cell-based, Streptococcus sanguis ATCC 49295; details: agent used alone
Excerpt: as §5, §6, §7
A sterile polystyrene 96-well plate was used to dilute the antimicrobial agents A, B and C. Using aseptic technique, 100 microliters of distilled water was placed in each test well. The dilution scheme was separated into two parts. First, the dilution of the combined agents A and B and then second, the dilution of agent C. A dilution of agents A and B was accomplished by placing 50 microliters of stock solution for agent A in the first well of each column. Next, 50 microliters of stock solution for agent B was added to each of the first wells of each column. […]
as §10

[12] = tested on: Streptococcus mutans (SM); test: as above; format: cell-based, Streptococcus mutans ATCC 25175; details: agent used alone
Excerpt: as §5, §6, §7, §8, §9, §10

[13] = tested on: Campylobacter rectus (CR); test: as above; format: cell-based; details: read-out: MIC, individual agent alone
Excerpt: as §5, §6, §7
A sterile polystyrene 96-well plate was used to dilute the antimicrobial agents A, B and C. […]
as §10

[14] = tested on: Actinomyces viscosus (AV); test: as above; format: cell-based, Actinomyces viscosus ATCC 19246; details: agent used alone
Excerpt: as §5, §6, §7, §8, §9, §10

[15] = tested on: Fusobacterium nucleatum (FN); test: as above; format: cell-based, Fusobacterium nucleatum ATCC 10933
Excerpt: as §5, §6, §7, §8, §9, §10

In the case of `CC1CCC(C(C)C)C(O)C1` (stereo not shown) [Menthol], the “Concentration of Antimicrobial Agent in Saliva” value ([1]; 25 minutes, GLY formulations 1,3-6, RC1 5,6, GRA 4-6, GA, GR #6, menthol 1-6) is reported as “below detection limits”, the “Above MIC in Saliva (Y/N)” value [1] is reported as “No” and the “Release from Chewed Gum Bolus after 25 min” value (shortened to “Release from Chewed Gum Bolus”) ([2]; 2.7 g peppermint gum chewed 25 min, ten volunteers) is reported as 50%. The concentration at 1 min [3] was 25 µg/mL, the concentration at 2.5 min [3] was 22 µg/mL and the concentration at 5 min [3] was 24 µg/mL. For the same compound, the concentration at 10 min [3] was 24 µg/mL and the MIC [4] was 125 µg/mL.
In the case of N-cocamidopropyl-dimethylglycine [TB1], the “MIC of Cocamidopropyl Dimethylglycine alone and when combined with Agent B” value (“MIC … with Agent B” for short) [5] is reported as 28.9 µg/mL, the “MIC … with Agent B” value [6] is reported as 30.2 µg/mL and the “MIC … with Agent B” value [7] is reported as 16.8 µg/mL. For the same compound, the “MIC … with Agent B” value [8] was 45.4 µg/mL and the “MIC … with Agent B” value [9] was 22.8 µg/mL.
For `CC1(C)[C@@H](O)CC[C@]2(C)[C@H]3C(=O)C=C4[C@@H]5C[C@@](C)(C(=O)O)CC[C@]5(C)CC[C@@]4(C)[C@]3(C)CC[C@@H]12` [GA, 18β-Glycyrrhetinic acid], the “Above MIC in Saliva (Y/N)” value [1] was “No”, the “Release from Chewed Gum Bolus” value ([2]; in vivo) was 15% and the concentration at 1 min [3] was 1.8 µg/mL. For the same compound, the concentration at 2.5 min [3] was 1.5 µg/mL, the concentration at 5 min [3] was 1.6 µg/mL and the concentration at 10 min [3] was 1.8 µg/mL. The concentration at 25 min [3] was 2.3 µg/mL.
For `CC1(C)[C@@H](O[C@H]2O[C@H](C(=O)O)[C@@H](O)[C@H](O)[C@H]2O[C@@H]2O[C@H](C(=O)O)[C@@H](O)[C@H](O)[C@H]2O)CC[C@]2(C)[C@H]3C(=O)C=C4[C@@H]5C[C@@](C)(C(=O)O)CC[C@]5(C)CC[C@@]4(C)[C@]3(C)CC[C@@H]12` [GR, Glycyrrhizic Acid, Monoammonium salt], the “Above MIC in Saliva (Y/N)” value [1] was “Yes”, the “Rate of release from gum” value ([1]; human, in vivo) was “released from a gum base less quickly and over a longer period of time” and the “Maintenance of concentration in oral cavity above MIC” value ([1]; in words, released from a gum composition) was “maintain a concentration in the oral cavity at a level above the MIC”. The “Release from Chewed Gum Bolus” value ([2]; in vivo) was 85%, the concentration at 1 min [3] was 3100 µg/mL and the concentration at 2.5 min [3] was 111 µg/mL. The concentration at 5 min [3] was 55 µg/mL, the concentration at 10 min [3] was 30 µg/mL and the concentration at 25 min [3] was 10 µg/mL.
For `COc1ccc2cc3[n+](cc2c1OC)CCc1cc2c(cc1-3)OCO2` [BX1, 5,6-dihydro-9,10-dimethoxybenzo[g]-1,3-benzodioxolo [5,6-a] quinolizinium], the “MIC, individual agent alone” value ([10]; PG, agent used alone) was 15.6 µg/mL, the MIC ([10]; Porphyromonas gingivalis, read-out: MIC, individual agent alone) was 15.6 µg/mL and the “MIC, individual agent alone” value ([11]; SS) was 62.5 µg/mL. The MIC ([11]; Streptococcus, read-out: MIC, individual agent alone, SS) was 31.3 µg/mL, the “MIC, individual agent alone” value ([12]; SM) was 31.3 µg/mL and 62.5 µg/mL and the MIC ([12]; Streptococcus mutans, read-out: MIC, individual agent alone, SM) was 31.3 µg/mL. The MIC [13] was 125 µg/mL, the “MIC, individual agent alone” value ([14]; AV) was 62.5 µg/mL and the MIC ([14]; Actinomyces viscosus, read-out: MIC, individual agent alone, AV) was 31.3 µg/mL. For the same compound, the “MIC, individual agent alone” value ([15]; FN, agent used alone) was 62.5 µg/mL and the MIC ([15]; Fusobacterium nucleatum, read-out: MIC, individual agent alone) was 62.5 µg/mL.
